Measured values taken from patent US20100029657A1, “Bridged, Bicyclic Heterocyclic or Spiro Bicyclic Heterocyclic Derivatives of Pyrazolo[1, 5-A]Pyrimidines, Methods for Preparation and Uses Thereof” (Wyeth, priority 2008, published 2010).

These molecules were tested against T1, Flag/GST-tagged recombinant human B-Raf (Homo sapiens, UniProt P15056) (assay: B-Raf kinase assay (phosphorylation of GST-MEK1, phospho-MEK1 antibody/Europium detection)). Conditions: B-Raf IC50 Data for compounds of Formula A; read-out: Mean IC50.
T1 construct: Flag; GST; made in house; host or cells: Sf9 insect cells (B-Raf); E. coli (MEK1-GST)
T1 sequence (P15056 whole entry): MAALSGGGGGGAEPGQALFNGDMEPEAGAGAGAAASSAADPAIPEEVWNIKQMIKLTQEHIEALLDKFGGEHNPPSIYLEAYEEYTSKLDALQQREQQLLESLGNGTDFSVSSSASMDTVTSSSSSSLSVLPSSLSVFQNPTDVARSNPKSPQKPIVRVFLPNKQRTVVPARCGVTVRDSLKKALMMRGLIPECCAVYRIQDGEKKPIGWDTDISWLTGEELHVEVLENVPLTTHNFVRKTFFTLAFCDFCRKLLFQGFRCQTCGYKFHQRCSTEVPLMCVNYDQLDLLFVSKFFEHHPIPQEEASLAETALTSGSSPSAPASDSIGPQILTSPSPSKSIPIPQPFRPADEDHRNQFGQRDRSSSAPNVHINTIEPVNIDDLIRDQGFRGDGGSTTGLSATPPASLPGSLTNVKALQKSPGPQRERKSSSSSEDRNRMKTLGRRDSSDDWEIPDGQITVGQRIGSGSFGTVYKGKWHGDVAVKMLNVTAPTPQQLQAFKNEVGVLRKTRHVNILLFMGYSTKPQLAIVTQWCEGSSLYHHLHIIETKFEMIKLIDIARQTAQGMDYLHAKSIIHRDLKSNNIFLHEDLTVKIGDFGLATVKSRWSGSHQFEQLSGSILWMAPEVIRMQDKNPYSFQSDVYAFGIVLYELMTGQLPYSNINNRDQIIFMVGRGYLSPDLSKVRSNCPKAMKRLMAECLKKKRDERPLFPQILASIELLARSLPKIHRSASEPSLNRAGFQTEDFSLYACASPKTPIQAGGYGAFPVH
Assay type: biochemical
Procedure, shortened: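 Percent inhibition was calculated at each compound concentration from Europium time-resolved fluorescence (anti-phospho-MEK1, then Eu-conjugated anti-rabbit) after GST capture. The upstream kinase step used GST-MEK1 with 0.2 nM B-Raf for 45 min at room temperature in MOPS buffer, pH 7.2. It was started with a cocktail of 200 μM ATP and 40 mM MgCl2.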
An IC50 of 0.4 nM was found for CN1C[C@@H]2C[C@H]1CN2c1cc(F)c(-c2ccnc3c(-c4cccc5[nH]ncc45)c(-c4ccncc4)nn23)cc1F [Example 166, 7-{2,5-difluoro-4-[(1S,4S)-5-methyl-2,5-diazabicyclo[2.2.1]hept-2-yl]phenyl}-3-(1H-indazol-4-yl)-2-pyridin-4-ylpyrazolo[1,5-a]pyrimidine] in this work. With CCN1C[C@@H]2C[C@H]1CN2c1cc(F)c(-c2ccnc3c(-c4cccc5[nH]ncc45)c(-c4ccncc4)nn23)c(F)c1 [Example 167, 7-{4-[(1S,4S)-5-ethyl-2,5-diazabicyclo[2.2.1]hept-2-yl]-2,6-difluorophenyl}-3-(1H-indazol-4-yl)-2-pyridin-4-ylpyrazolo[1,5-a]pyrimidine] the IC50 was < 0.3 nM. With CC(C)CN1C[C@@H]2C[C@H]1CN2c1cc(F)c(-c2ccnc3c(-c4cccc5[nH]ncc45)c(-c4ccncc4)nn23)c(F)c1 [Example 168, 7-{2,6-difluoro-4-[(1S,4S)-5-isobutyl-2,5-diazabicyclo[2.2.1]hept-2-yl]phenyl}-3-(1H-indazol-4-yl)-2-pyridin-4-ylpyrazolo[1,5-a]pyrimidine] the IC50 was < 0.3 nM. For CC(C)N1C[C@@H]2C[C@H]1CN2c1cc(F)c(-c2ccnc3c(-c4cccc5[nH]ncc45)c(-c4ccncc4)nn23)c(F)c1 [Example 169, 7-{2,6-difluoro-4-[(1S,4S)-5-isopropyl-2,5-diazabicyclo[2.2.1]hept-2-yl]phenyl}-3-(1H-indazol-4-yl)-2-pyridin-4-ylpyrazolo[1,5-a]pyrimidine], the IC50 was < 0.3 nM. For Fc1cc(N2C[C@@H]3C[C@H]2CN3C2CCC2)cc(F)c1-c1ccnc2c(-c3cccc4[nH]ncc34)c(-c3ccncc3)nn12 [Example 170, 7-{4-[(1S,4S)-5-cyclobutyl-2,5-diazabicyclo[2.2.1]hept-2-yl]-2,6-difluorophenyl}-3-(1H-indazol-4-yl)-2-pyridin-4-ylpyrazolo[1,5-a]pyrimidine], the IC50 was < 0.3 nM. An IC50 of 0.3 nM was found for Fc1cc(N2C[C@@H]3CC[C@H]2CN3)ccc1-c1ccnc2c(-c3cccc4[nH]ncc34)c(-c3ccncc3)nn12 [Example 172, 7-{4-[(1S,4S)-2,5-diazabicyclo[2.2.2]oct-2-yl]-2-fluorophenyl}-3-(1H-indazol-4-yl)-2-pyridin-4-ylpyrazolo[1,5-a]pyrimidine] in this work. An IC50 of 0.4 nM was found for CN1C[C@@H]2CC[C@H]1CN2c1ccc(-c2ccnc3c(-c4cccc5[nH]ncc45)c(-c4ccncc4)nn23)c(F)c1 [Example 173, 7-{2-fluoro-4-[(1S,4S)-5-methyl-2,5-diazabicyclo[2.2.2]oct-2-yl]phenyl}-3-(1H-indazol-4-yl)-2-pyridin-4-ylpyrazolo[1,5-a]pyrimidine] in this work. An IC50 of 0.4 nM was found for CN1C[C@@H]2C[C@H]1CN2c1c(F)c(F)c(-c2ccnc3c(-c4cccc5[nH]ncc45)c(-c4ccncc4)nn23)c(F)c1F [Example 174, 3-(1H-indazol-4-yl)-2-pyridin-4-yl-7-{2,3,5,6-tetrafluoro-4-[(1S,4S)-5-methyl-2,5-diazabicyclo[2.2.1]hept-2-yl]phenyl}pyrazolo[1,5-a]pyrimidine] in this work. An IC50 of 1 nM was found for CC(C)(C)OC(=O)N1C[C@@H]2C[C@H]1CN2c1ccc(-c2ccnc3c(-c4ccc(F)c5[nH]ncc45)c(-c4ccncc4)nn23)c(Cl)c1 [Example 175, tert-butyl (1S,4S)-5-{3-chloro-4-[3-(7-fluoro-1H-indazol-4-yl)-2-pyridin-4-ylpyrazolo[1,5-a]pyrimidin-7-yl]phenyl}-2,5-diazabicyclo[2.2.1]heptane-2-carboxylate] in this work. An IC50 of 1 nM was found for Fc1ccc(-c2c(-c3ccncc3)nn3c2nccc3[C@H]2CC[C@@H](N3C[C@@H]4C[C@H]3CN4)CC2)c2cn[nH]c12 [Example 176, 7-{cis-4-[(1S,4S)-2,5-diazabicyclo[2.2.1]hept-2-yl]cyclohexyl}-3-(7-fluoro-1H-indazol-4-yl)-2-pyridin-4-ylpyrazolo[1,5-a]pyrimidine] in this work. An IC50 of 4 nM was found for Fc1ccc(-c2c(-c3ccncc3)nn3c2nccc3[C@H]2CC[C@@H](N3C[C@@H]4C[C@H]3CO4)CC2)c2cn[nH]c12 [Example 177, 3-(7-fluoro-1H-indazol-4-yl)-7-{cis-4-[(1S,4S)-2-oxa-5-azabicyclo[2.2.1]hept-5-yl]cyclohexyl}-2-pyridin-4-ylpyrazolo[1,5-a]pyrimidine] in this work. An IC50 of 6.7 nM was found for Fc1ccc(-c2c(-c3ccncc3)nn3c2nccc3[C@H]2CC[C@H](N3C[C@@H]4C[C@H]3CO4)CC2)c2cn[nH]c12 [Example 178, 3-(7-fluoro-1H-indazol-4-yl)-7-{trans-4-[(1S,4S)-2-oxa-5-azabicyclo[2.2.1]hept-5-yl]cyclohexyl}-2-pyridin-4-ylpyrazolo[1,5-a]pyrimidine] in this work. With Fc1ccc(-c2c(-c3ccncc3)nn3c2nccc3[C@H]2CC[C@H](N3C[C@@H]4C[C@H]3CN4)CC2)c2cn[nH]c12 [Example 183, 7-{trans-4-[(1S,4S)-2,5-diazabicyclo[2.2.1]hept-2-yl]cyclohexyl}-3-(7-fluoro-1H-indazol-4-yl)-2-pyridin-4-ylpyrazolo[1,5-a]pyrimidine] the IC50 was < 0.3 nM. With Fc1ccc(-c2c(-c3ccncc3)nn3c(-c4ccc(N5C[C@@H]6C[C@H]5CN6)cc4Cl)ccnc23)c2cn[nH]c12 [Example 184, 7-{2-chloro-4-[(1S,4S)-2,5-diazabicyclo[2.2.1]hept-2-yl]phenyl}-3-(7-fluoro-1H-indazol-4-yl)-2-pyridin-4-ylpyrazolo[1,5-a]pyrimidine] the IC50 was < 0.3 nM. An IC50 of 1.7 nM was found for Fc1cc(-c2ccnc3c(-c4cccc5[nH]ncc45)c(-c4ccncc4)nn23)ccc1N1C[C@@H]2C[C@H]1CN2 [Example 185, 7-{4-[(1S,4S)-2,5-diazabicyclo[2.2.1]hept-2-yl]-3-fluorophenyl}-3-(1H-indazol-4-yl)-2-pyridin-4-ylpyrazolo[1,5-a]pyrimidine] in this work. An IC50 of 1.1 nM was found for FC(F)(F)c1cc(N2C[C@@H]3C[C@H]2CN3)ccc1-c1ccnc2c(-c3cccc4[nH]ncc34)c(-c3ccncc3)nn12 [Example 186, 7-{4-[(1S,4S)-2,5-diazabicyclo[2.2.1]hept-2-yl]-2-(trifluoromethyl)phenyl}-3-(1H-indazol-4-yl)-2-pyridin-4-ylpyrazolo[1,5-a]pyrimidine] in this work. In the case of Brc1cc(N2C[C@@H]3C[C@H]2CN3)ccc1-c1ccnc2c(-c3cccc4[nH]ncc34)c(-c3ccncc3)nn12 [Example 187, 7-{2-bromo-4-[(1S,4S)-2,5-diazabicyclo[2.2.1]hept-2-yl]phenyl}-3-(1H-indazol-4-yl)-2-pyridin-4-ylpyrazolo[1,5-a]pyrimidine], the IC50 is reported as < 0.3 nM. An IC50 of 1.9 nM was found for CN1C[C@@H]2C[C@H]1CN2c1ccc(-c2ccnc3c(-c4cccc5[nH]ncc45)c(-c4ccncc4)nn23)cc1F [Example 188, 7-{3-fluoro-4-[(1S,4S)-5-methyl-2,5-diazabicyclo[2.2.1]hept-2-yl]phenyl}-3-(1H-indazol-4-yl)-2-pyridin-4-ylpyrazolo[1,5-a]pyrimidine] in this work. An IC50 of 1.4 nM was found for CN1C[C@@H]2C[C@H]1CN2c1ccc(-c2ccnc3c(-c4cccc5[nH]ncc45)c(-c4ccncc4)nn23)c(C(F)(F)F)c1 [Example 189, 3-(1H-indazol-4-yl)-7-{4-[(1S,4S)-5-methyl-2,5-diazabicyclo[2.2.1]hept-2-yl]-2-(trifluoromethyl)phenyl}-2-pyridin-4-ylpyrazolo[1,5-a]pyrimidine] in this work.
